# Measured values from patent US7786095B2, “Amphiphilic macrocyclic derivatives and their analogues” (University College Dublin, priority 2000, dated 2010).
# “And” between values parts separate entries of the source, which are not always exact repeats. Identical values can stand only once.
# What was measured:
# Type in all cases: physicochemical
# [1] = Dynamic light scattering of cyclodextrin vesicles dispersed in water by sonication; conditions: sonicated 2 hours (HE-SC12 room temperature, HE-SC16 50° C.)
# Description: (§1) The amphiphilic cyclodextrins are dispersed in water by sonication of a thin film (cast by slow rotary evaporation of a solution of the cyclodextrins in chloroform) in a sonication bath. HE-SC12 is sonicated for 2 hours at room temperature and HE-SC16 is sonicated for 2 hours at 50° C. Dynamic light scattering indicates the presence of vesicles with an average diameter of 170 nm. Vesicles of cyclodextrins of 50-300 nm diameter are also observed by transmission electron microscopy using uranyl acetate as a negative staining agent (FIG. 1). Upon prolonged sonication (9 hours) of a solution of HE-SC12, a monodisperse solution of spherical vesicles with an average diameter of 60 nm is obtained (FIG. 2). Thus, the particle size can be directed by sonication time, in order to obtain a size suitable for specific molecular inclusion or specific therapeutic use.
# [2] = Carboxyfluorescein entrapment in vesicles: fluorescence increase on Triton X-100 solubilisation; conditions: 1000-fold dilution, 0.1% w/w Triton X-100, two independent preparations
# Description: (§2) Vesicles of heptakis(6-dodecylthio-2-oligoethylenoxy)-β-cyclodextrin and […] were prepared by sonication in a buffered solution of carboxyfluorescein (CF).
# (i) Small aliquots of the solutions of the cyclodextrin vesicles (5-20 mM) were diluted 1000-fold, resulting in immediate dilution of the non-entrapped CF with concomitant intense CF fluorescence, which was measured. The fluorescence of entrapped CF is negligible due to self-quenching. Next, the vesicles in the diluted solution were solubilised by the addition of 0.1% w/w of the detergent Triton X-100, leading to release and dilution of entrapped CF, with concomitant increase of CF fluorescence, which was measured. In this concentration range (ca. […]). The fluorescence intensity of CF correlates linearly with its concentration, and the incremental change of fluorescence upon addition of Triton X-100 is a direct measure of the percentage of entrapped volume of the vesicles relative to the total volume of the solution. The entrapped volume amounted to 7.7+/−1.9% and 11.4+/−2.7% for two independent preparations of HE-SC16; and to 5.0+/−2.4% and 7.2+/−5.3% for two independent preparations of HE-SC12.
# [3] = Transmission electron microscopy of cyclodextrin vesicles (uranyl acetate negative staining); conditions: prolonged sonication (9 hours), monodisperse solution
# Description: as §1
# [4] = Spontaneous release of carboxyfluorescein from gel-filtered vesicles over time; conditions: room temperature, after 3 days
# Description: as §2
# (ii) CF entrapped in the vesicles was separated from free (non-entrapped) CF by gel filtration using Sephadex G25. […] The peak of entrapped CF coincided with the elution of vesicles (FIG. 4). This confirms the existence of an aqueous inner compartment within the vesicles. Furthermore, as anticipated, the amount of entrapped CF in cyclodextrin vesicles correlated with the cyclodextrin concentration.
# (iii) The spontaneous release of CF from vesicles of HE-SC16 (separated from free CF by gel filtration) was measured over time. At room temperature, the leakage of CF was limited, and the vesicles retained more than 75% of CF after 3 days (FIG. 5).
# [5] = Differential scanning calorimetry of a 10% (w/w) dispersion in water
# Description: Heptakis(6-hexadecylthio-2-oligoethylenoxy)-β-cyclodextrin was analysed using differential scanning calorimetry. […] The transition occurred around 48-49° C. and the enthalpy of transition amounted to 59 kJ/mol cyclodextrin. This typical Lβ-L[…] transition was confirmed in a measurement of the fluorescence polarisation of diphenylhexatriene in the presence of a vesicle solution by a standard method (R. R. C. New, Liposomes: a practical approach, Oxford University Press, 1990). Thus, vesicles of the amphiphilic cyclodextrins undergo thermotropic phase transitions which depend on molecular structure, and which can direct important parameters such as vesicle stability and bilayer permeability.
average diameter of vesicles (dynamic light scattering) [1],entrapped volume of the vesicles relative to the total volume of the solution [2],average diameter of spherical vesicles after prolonged sonication [3],CF retained by vesicles [4],endothermic phase transition temperature (DSC heating scan) [5],enthalpy of transition [5],Substance
170 nm,5.0+/−2.4% and 7.2+/−5.3%,60 nm,,,,heptakis(6-dodecylthio-2-oligoethylenoxy)-β-cyclodextrin [HE-SC12]
170 nm,7.7+/−1.9% and 11.4+/−2.7%,,more than 75%,48-49 °C,59 kJ/mol cyclodextrin,heptakis(6-hexadecylthio-2-oligoethylenoxy)-β-cyclodextrin [HE-SC16]
